From patent publication US9365614B2, “IAP BIR domain binding compounds” (priority 2006, dated 2016)

Test system: SKOV-3 cells
Assay: Survival MTT assay, SKOV-3
Assay type: cell-based
Settings: Homo sapiens, SK-OV-3, 72 h, read-out: SKOV-3 EC50
Description: One day prior the treatment with compound, 2000 to 4000 cells per well were plated in a tissue culture treated 96 well format dish with 100 ul of media and incubated at 37° C., 5% CO2. On the day of compound treatment, compounds were diluted with cell culture media to a working stock concentration of 2×. 100 uL of diluted compound were then added to each well. The treated plate was incubated for 72 h at 37° C., 5% CO2. Upon incubation, the cell viability was assessed as followed 20 uL of MTT reagent at 5 mg/ml were added per well to cell plate. The plate was incubated for 2 h at 37° C. in presence of 5% CO2. The supernatant was then removed from the plate and 100 uL of isopropanol were added. The absorbance was measured in a TECAN spectrophotometer at 570 nm. The percentage of viability was expressed in percentage of the signal obtained with non treated cells.

Row | Compound | EC50
1 | CN[C@@H](C)C(=O)N[C@H](C(=O)N1C[C@@H](NC(=O)c2ccc(C(=O)N[C@H]3C[C@@H](CN(CCc4ccccc4)C(C)=O)N(C(=O)[C@@H](NC(=O)[C@H](C)NC)C(C)(C)C)C3)cc2)C[C@H]1CN(CCc1ccccc1)C(C)=O)C(C)(C)C [Compound 25] | < 50 nM
2 | CN[C@@H](C)C(=O)N[C@H](C(=O)N1C[C@@H](NC(=O)c2ccc(C(=O)N[C@H]3C[C@@H](C(=O)NCc4ccccc4-c4ccccc4)N(C(=O)[C@@H](NC(=O)[C@H](C)NC)C(C)(C)C)C3)cc2)C[C@H]1C(=O)NCc1ccccc1-c1ccccc1)C(C)(C)C [Compound 60] | < 50 nM
3 | CN[C@@H](C)C(=O)N[C@H](C(=O)N1C[C@@H](NC(=O)c2cccc(C(=O)N[C@H]3C[C@@H](C(=O)N[C@@H]4CCCc5ccccc54)N(C(=O)[C@@H](NC(=O)[C@H](C)NC)C(C)(C)C)C3)c2)C[C@H]1C(=O)N[C@@H]1CCCc2ccccc21)C(C)(C)C [Compound 40] | < 50 nM
4 | CN[C@@H](C)C(=O)N[C@H](C(=O)N1C[C@@H](NC(=O)c2ccc(C(=O)N[C@H]3C[C@@H](C(=O)NC(C)C)N(C(=O)[C@@H](NC(=O)[C@H](C)NC)C(C)(C)C)C3)cc2)C[C@H]1C(=O)NC(C)C)C(C)(C)C [Compound 22] | < 250 nM
5 | CN[C@@H](C)C(=O)N[C@H](C(=O)N1C[C@@H](NC(=O)c2ccc(C(=O)N[C@H]3C[C@@H](C(=O)N[C@H](COCc4ccccc4)c4ccccc4)N(C(=O)[C@@H](NC(=O)[C@H](C)NC)C(C)(C)C)C3)cc2)C[C@H]1C(=O)N[C@H](COCc1ccccc1)c1ccccc1)C(C)(C)C [Compound 64] | < 50 nM
6 | CN[C@@H](C)C(=O)N[C@H](C(=O)N1C[C@@H](NS(=O)(=O)c2cccc(S(=O)(=O)N[C@H]3C[C@@H](C(=O)N[C@@H]4CCCc5ccccc54)N(C(=O)[C@@H](NC(=O)[C@H](C)NC)C(C)(C)C)C3)c2)C[C@H]1C(=O)N[C@@H]1CCCc2ccccc21)C(C)(C)C [Compound 33] | < 50 nM
7 | CN[C@@H](C)C(=O)N[C@H](C(=O)N1C[C@@H](NC(=O)c2ccc(C(=O)N[C@H]3C[C@@H](C(=O)NCC(c4ccccc4)c4ccccc4)N(C(=O)[C@@H](NC(=O)[C@H](C)NC)C(C)(C)C)C3)cc2)C[C@H]1C(=O)NCC(c1ccccc1)c1ccccc1)C(C)(C)C [Compound 31] | < 250 nM
8 | CN[C@@H](C)C(=O)N[C@H](C(=O)N1C[C@@H](NS(=O)(=O)c2ccc3ccc(S(=O)(=O)N[C@H]4C[C@@H](C(=O)N[C@@H]5CCCc6ccccc65)N(C(=O)[C@@H](NC(=O)[C@H](C)NC)C(C)(C)C)C4)cc3c2)C[C@H]1C(=O)N[C@@H]1CCCc2ccccc21)C(C)(C)C [Compound 58] | < 250 nM
9 | CN[C@@H](C)C(=O)N[C@H](C(=O)N1C[C@@H](NC(=O)c2ccc(C(=O)N[C@H]3C[C@@H](C(=O)NCCc4ccccc4)N(C(=O)[C@@H](NC(=O)[C@H](C)NC)C(C)(C)C)C3)cc2)C[C@H]1C(=O)NCCc1ccccc1)C(C)(C)C [Compound 20] | < 50 nM
10 | CN[C@@H](C)C(=O)N[C@H](C(=O)N1C[C@@H](NC(=O)c2ccc(C(=O)N[C@H]3C[C@@H](C(=O)NCCc4ccc(F)cc4)N(C(=O)[C@@H](NC(=O)[C@H](C)NC)C(C)(C)C)C3)cc2)C[C@H]1C(=O)NCCc1ccc(F)cc1)C(C)(C)C [Compound 19] | < 50 nM
11 | CN[C@@H](C)C(=O)N[C@H](C(=O)N1C[C@@H](NC(=O)c2ccc(C(=O)N[C@H]3C[C@@H](C(=O)NC4Cc5ccccc5C4)N(C(=O)[C@@H](NC(=O)[C@H](C)NC)C(C)(C)C)C3)cc2)C[C@H]1C(=O)NC1Cc2ccccc2C1)C(C)(C)C [Compound 61] | < 50 nM
12 | CN[C@@H](C)C(=O)NC(C(=O)N1C[C@@H](NC(=O)CNC(=O)c2cccc(C(=O)NCC(=O)N[C@H]3C[C@@H](C(=O)N[C@@H]4CCCc5ccccc54)N(C(=O)[C@@H](NC(=O)[C@H](C)NC)C(C)(C)C)C3)c2)CC1C(=O)N[C@@H]1CCCc2ccccc21)C(C)(C)C (stereo partly drawn) [Compound 37] | > 1000 nM
